Laboratory results from patent US9376376B2, “Substitute diphenylamine compounds use thereof as antitumor agents” (SINOCHEM CORPORATION, priority 2012, dated 2016).

Assays:
[1] = system: non-small cell lung cancer A549 cells; assay: In vitro cell inhibition assay, CCK-8 method, A549; format: cell-based, human; conditions: 48 h incubation
Description: (§1) After the cell culture flasks gently shaking, culture fluid was discarded in clean bench. […] Cells were collected and transferred to centrifuge tube. For the non-adherent cells HL-60, CCRF-CEM and MOLT-4, cell flasks were picked up from incubator and then transferred to the centrifuge tubes directly. After cells were collected using centrifuge at 1000 rpm/min for 5 min, the fluid was discarded. Then cells were washed for one time by PBS, discard fluid. Then add some medium, count cells under inverted microscope using blood cell counting plate, according the counting number to making the density of adherent cell was 1×10^5 cells/mL, the non-adherent cell was 2×10^5 cells/mL (the volumes of HL-60, CCRF-CEM, MOLT-4 are smaller than non-adherent cells, these cells added to each well was much more higher). Add 50 μL aliquots to each well of 96-well plates (the density of adherent cells was 5000 cells/well, non-adherent cells was 10000 cells/well). Blank control, Negative control, blank control with compounds and positive control wells were grouped, and three replicate wells were used for each data point in the experiments. Then the cells were cultured in 5% incubator for overnight at 37° C., Then the different concentration compounds were added to each well. After incubation for 48 h, according to the manufacturer's instructions, CCK-8 reagent (10 μl) was added and incubation was continued for a further 2-4 h. The absorbance (A) of each well was read at 450 nm using a plate reader.

[2] = system: leukemia HL-60 cells; assay: In vitro cell inhibition assay, CCK-8 method, HL-60; format: cell-based, human; conditions: HL-60 cells, CCK-8 method
Description: as §1

[3] = system: colon cancer COLO-205; assay: In vitro cell inhibition assay, CCK-8 method, COLO-205; conditions: Homo sapiens, COLO 205, read-out: The half maximal inhibitory concentration (IC50)

Row | SMILES | Proliferation inhibitory effect of the compounds on A549 cells (% of Control) ([1]; CCK-8, 0.01 μM) | Proliferation inhibitory effect of the compounds on A549 cells (% of Control) ([1]; CCK-8, 0.1 μM) | Proliferation inhibitory effect of the compounds on A549 cells (% of Control) ([1]; CCK-8, 1 μM) | Proliferation inhibitory effect of the compounds on A549 cells (% of Control) ([1]; CCK-8, 10 μM) | Proliferation inhibitory effect of the compounds on A549 cells (% of Control) ([1]; CCK-8, 100 μM) | Proliferation inhibitory effect of the compounds on HL-60 cells (% of Control) ([2]; concentration 0.01 μM) | Proliferation inhibitory effect of the compounds on HL-60 cells (% of Control) ([2]; concentration 0.1 μM) | Proliferation inhibitory effect of the compounds on HL-60 cells (% of Control) ([2]; concentration 1 μM) | Proliferation inhibitory effect of the compounds on HL-60 cells (% of Control) ([2]; concentration 10 μM) | Proliferation inhibitory effect of the compounds on HL-60 cells (% of Control) ([2]; concentration 100 μM) | also measured
1 | N#Cc1c(Cl)c(Cl)c(Nc2ccc(C(F)(F)F)cc2)c(C#N)c1Cl [Compound 6-24] | 22.06 % of Control | 24.27 % of Control | 31.44 % of Control | 60.31 % of Control | 87.36 % of Control | 0.00 % of Control | 17.55 % of Control | 48.39 % of Control | 56.72 % of Control | 95.11 % of Control | –
2 | COC(=O)c1ccc(Nc2c(Cl)c(Cl)c(C#N)c(Cl)c2C#N)cc1 [Compound 6-25] | 15.66 % of Control | 18.59 % of Control | 17.11 % of Control | 55.87 % of Control | 81.32 % of Control | 11.52 % of Control | 42.54 % of Control | 84.06 % of Control | 92.02 % of Control | 84.30 % of Control | –
3 | N#Cc1c(Cl)c(Cl)c(Nc2ccc(C(F)(F)F)cc2Cl)c(C#N)c1Cl [Compound 6-47] | 42.56 % of Control | 49.86 % of Control | 53.58 % of Control | 55.57 % of Control | 99.91 % of Control | 7.02 % of Control | 34.70 % of Control | 41.47 % of Control | 83.33 % of Control | 98.51 % of Control | –
4 | N#Cc1c(Cl)c(Cl)c(Nc2c(Cl)cc(C(F)(F)F)cc2Cl)c(C#N)c1Cl [Compound 6-95] | 39.65 % of Control | 56.27 % of Control | 78.63 % of Control | 97.88 % of Control | 98.69 % of Control | 0.00 % of Control | 43.28 % of Control | 94.76 % of Control | 94.99 % of Control | 96.40 % of Control | –
5 | COC(=O)c1cc(Cl)c(Nc2c(Cl)c(Cl)c(C#N)c(Cl)c2C#N)c(Cl)c1 [Compound 6-100] | 43.98 % of Control | 50.53 % of Control | 52.15 % of Control | 57.45 % of Control | 89.94 % of Control | 14.24 % of Control | 26.90 % of Control | 39.47 % of Control | 49.85 % of Control | 97.42 % of Control | –
6 | N#Cc1c(Cl)c(Cl)c(Nc2c(Br)cc(OC(F)(F)F)cc2Br)c(C#N)c1Cl [Compound 6-111] | 23.15 % of Control | 29.42 % of Control | 53.14 % of Control | 80.03 % of Control | 99.83 % of Control | 13.70 % of Control | 41.52 % of Control | 79.31 % of Control | 95.16 % of Control | 99.28 % of Control | –
7 | N#Cc1c(Cl)c(Cl)c(Nc2c(Br)cc(Br)cc2Br)c(C#N)c1Cl [Compound 6-112] | – | – | – | – | – | – | – | – | – | – | inhibition at 0.01 µM ([1]; Homo sapiens, A549, CCK-8, 0.01 μM, read-out: Proliferation inhibitory effect of the compounds on A549 cells (% of Control)): 46.5%; inhibition at 0.1 µM ([1]; Homo sapiens, A549, CCK-8, 0.1 μM, read-out: Proliferation inhibitory effect of the compounds on A549 cells (% of Control)): 47.2%; inhibition at 1 µM ([1]; Homo sapiens, A549, CCK-8, 1 μM, read-out: Proliferation inhibitory effect of the compounds on A549 cells (% of Control)): 76.9%; inhibition at 10 µM ([1]; Homo sapiens, A549, CCK-8, 10 μM, read-out: Proliferation inhibitory effect of the compounds on A549 cells (% of Control)): 89.3%; inhibition at 100 µM ([1]; Homo sapiens, A549, CCK-8, 100 μM, read-out: Proliferation inhibitory effect of the compounds on A549 cells (% of Control)): 99.3%; inhibition at 0.01 µM ([2]; Homo sapiens, concentration 0.01 μM, read-out: Proliferation inhibitory effect of the compounds on HL-60 cells (% of Control)): 48.3%; inhibition at 0.1 µM ([2]; Homo sapiens, concentration 0.1 μM, read-out: Proliferation inhibitory effect of the compounds on HL-60 cells (% of Control)): 59.5%; inhibition at 1 µM ([2]; Homo sapiens, concentration 1 μM, read-out: Proliferation inhibitory effect of the compounds on HL-60 cells (% of Control)): 91.5%; inhibition at 10 µM ([2]; Homo sapiens, concentration 10 μM, read-out: Proliferation inhibitory effect of the compounds on HL-60 cells (% of Control)): 97.6%; inhibition at 100 µM ([2]; Homo sapiens, concentration 100 μM, read-out: Proliferation inhibitory effect of the compounds on HL-60 cells (% of Control)): 96.5%
8 | N#Cc1c(Cl)c(Cl)c(Nc2c(Cl)cc(Br)cc2Cl)c(C#N)c1Cl [Compound 6-201] | 14.31 % of Control | 19.63 % of Control | 26.90 % of Control | 60.23 % of Control | 83.86 % of Control | 40.59 % of Control | 48.61 % of Control | 75.70 % of Control | 86.76 % of Control | 98.14 % of Control | –
9 | COc1cc2ncnc(Nc3ccc(F)c(Cl)c3)c2cc1OCCCN1CCOCC1 [Gefitinib] | – | – | – | – | – | – | – | – | – | – | IC50 [3]: 6.97 µM
